Data published in paper PMC12267056 (Nature, 2025).
Several values for one entry are separate records, joined by “and”; a condition that tells them apart may be missing. Identical values can stand only once. Like-named read-outs stand apart in the source and are kept apart here.

Tests used:
[1] = biological target: T1, SLC35B1-Fv-MBP fusion protein (Homo sapiens, UniProt P78383); test: IC50 for ADP competition of [3H]-ADP/ATP transport, SLC35B1-Fv-MBP; type: biochemical; conditions: read-out: IC50, external ADP competition of [3H]-ADP/ATP transport; SLC35B1-Fv-MBP fusion protein in proteoliposomes
T1 construct: TEV site (C); GFP (C); His8 (C); made in house; host or cells: SLC35B1: Saccharomyces cerevisiae FGY217; Fv–MBP: Brevibacillus choshinensis (secreted)
T1 sequence (P78383 1-322): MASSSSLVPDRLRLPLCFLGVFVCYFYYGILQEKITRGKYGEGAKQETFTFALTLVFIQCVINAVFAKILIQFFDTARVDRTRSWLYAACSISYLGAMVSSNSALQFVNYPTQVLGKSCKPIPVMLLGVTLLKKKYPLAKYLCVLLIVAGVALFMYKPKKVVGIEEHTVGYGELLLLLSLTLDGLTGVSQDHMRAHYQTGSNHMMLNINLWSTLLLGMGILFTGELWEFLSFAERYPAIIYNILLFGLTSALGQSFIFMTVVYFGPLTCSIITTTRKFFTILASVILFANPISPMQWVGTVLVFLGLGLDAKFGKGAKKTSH

[2] = biological target: T2, human SLC35B1 (wild type) (Homo sapiens, UniProt P78383); type: binding; set-up: made in house; host or cells: Saccharomyces cerevisiae FGY217; conditions: for GFP fluorescence after heating (source data Fig 1B): 1 mM substrate
T2 sequence (P78383 1-322): T1 sequence (P78383 1-322)

[3] = biological target: T2, human SLC35B1 (wild type); test: STD NMR of nucleotide interaction with SLC35B1 proteoliposomes; type: binding; set-up: made in house; host or cells: Saccharomyces cerevisiae FGY217
[4] = biological target: T2, human SLC35B1 (wild type); test: Competitive uptake assay: [3H]ADP uptake with 1 mM cold nucleotide; type: biochemical; set-up: made in house; host or cells: Saccharomyces cerevisiae FGY217; conditions: competitor 1mM; sheet ED 6F; SLC35B1 proteoliposomes
[5] = biological target: T2, human SLC35B1 (wild type); test: IC50 for competitive inhibition of [3H]ADP uptake in proteoliposomes; type: biochemical; set-up: made in house; host or cells: Saccharomyces cerevisiae FGY217
[6] = biological target: T2, human SLC35B1 (wild type); test: [3H]ADP/ATP exchange kinetics (Michaelis–Menten); type: biochemical; set-up: made in house; host or cells: Saccharomyces cerevisiae FGY217

## Nc1ncnc2c1ncn2[C@@H]1O[C@H](COP(=O)(O)OP(=O)(O)O)[C@@H](O)[C@H]1O [ADP]
[1]
  IC50: 2770 ± 410 nM
[2]; 1 mM nucleotide, purified wild-type SLC35B1–GFP
  ΔTm (average melting temperature increase): 5.3 °C
[2]; 1 mM nucleotide, wild-type SLC35B1–GFP
  ΔTm, individual titrations (source data): 5.49 and 5.09 and 5.45
[2]; temperature 4
  GFP fluorescence after heating (source data Fig 1B): 98.7528 and 95.6204 and 104.931 and 101.189 and 101.102 and 98.4048
[2]; temperature 10
  GFP fluorescence after heating (source data Fig 1B): 87.2672 and 91.8788 and 95.3593 and 107.889 and 92.923 and 94.9243
[2]; temperature 20
  GFP fluorescence after heating (source data Fig 1B): 90.7477 and 91.6178 and 91.1827 and 94.7503 and 88.9204 and 86.6668
[2]; temperature 30
  GFP fluorescence after heating (source data Fig 1B): 85.9881 and 86.4928 and 88.9204 and 91.0957 and 89.5295 and 91.7048
[2]; temperature 40
  GFP fluorescence after heating (source data Fig 1B): 42.8735 and 42.656 and 39.9412 and 40.3066 and 43.7088 and 44.6834
[2]; temperature 50
  GFP fluorescence after heating (source data Fig 1B): 5.748 and 5.6183 and 5.416 and 5.384 and 5.915 and 6.0377
[2]; temperature 60
  GFP fluorescence after heating (source data Fig 1B): 2.3127 and 2.334 and 2.351 and 2.357 and 2.381 and 2.422
[2]; temperature 70
  GFP fluorescence after heating (source data Fig 1B): 0.4378 and 0.4464 and 0.4526 and 0.4781 and 0.469 and 0.4867
[3]
  1H integral (off-resonance spectrum): 1.99E+11
  STD integral: 3.67E+10
[4]
  [3H]ADP uptake in the presence of cold competitor nucleotide (individual replicates; no-competitor control about 100): -1.767 and -1.033 and 2.879 and 5.424 and 4.368 and 4.176
[5]; external cold nucleotide 0.01 uM
  Normalized [3H]-ADP uptake activity (IC50 curve): 93.6927 and 106.307 and 98.0637
[5]; external cold nucleotide 0.1 uM
  Normalized [3H]-ADP uptake activity (IC50 curve): 87.3862 and 98.7018 and 89.3272
[5]; external cold nucleotide 1 uM
  Normalized [3H]-ADP uptake activity (IC50 curve): 48.8239 and 76.0895 and 44.7547
[5]; external cold nucleotide 10 uM
  Normalized [3H]-ADP uptake activity (IC50 curve): 22.7468 and 19.9682 and 21.5397
[5]; external cold nucleotide 100 uM
  Normalized [3H]-ADP uptake activity (IC50 curve): 8.173 and 6.95 and 8.424
[5]; wild-type SLC35B1 proteoliposomes
  IC50: 1600 nM
[6]; [ADP] 0.2
  ADP/ATP exchange initial rate: 18.1311 nmols / min* mg and 18.3179 nmols / min* mg and 18.8253 nmols / min* mg
[6]; [ADP] 0.5
  ADP/ATP exchange initial rate: 28.9111 nmols / min* mg and 29.9816 nmols / min* mg and 28.6714 nmols / min* mg
[6]; [ADP] 1
  ADP/ATP exchange initial rate: 44.617 nmols / min* mg and 42.2865 nmols / min* mg and 44.5891 nmols / min* mg
[6]; [ADP] 5
  ADP/ATP exchange initial rate: 114.496 nmols / min* mg and 126.14 nmols / min* mg and 112.107 nmols / min* mg
[6]; [ADP] 10
  ADP/ATP exchange initial rate: 156.88 nmols / min* mg and 168.644 nmols / min* mg and 150.078 nmols / min* mg
[6]; [ADP] 20
  ADP/ATP exchange initial rate: 155.074 nmols / min* mg and 183.464 nmols / min* mg and 182.884 nmols / min* mg
